# In ChEMBL document CHEMBL1201862, “PubChem BioAssay data set” (2004):
#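 Protocol summary: plate cells (96-well), add compound at 5 concentrations, incubate 48 h, interpolate endpoints linearly. GI50 marks 50% less growth.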 Active and inactive are the calls of the source. No stated cut-off is given here; in the data, active = GI50 up to about 1.1 µM and inactive = higher.
# Tests used:
# Experiment in all cases: inhibition of tumour cell growth, NCI panel, 48 h
# [1] = tested on: A498
# [2] = tested on: A549
# [3] = tested on: CAKI-1
# [4] = tested on: CCRF-CEM
# [5] = tested on: COLO 205
# [6] = tested on: DLD-1
# [7] = tested on: DMS-114
# [8] = tested on: DMS-273
# [9] = tested on: EKVX
# [10] = tested on: HCC 2998
# [11] = tested on: HCT-116
# [12] = tested on: HCT-15
# [13] = tested on: HL-60
# [14] = tested on: HOP-18
# [15] = tested on: HOP-62
# [16] = tested on: HOP-92
# [17] = tested on: HT-29
# [18] = tested on: IGROV-1
# [19] = tested on: K562
# [20] = tested on: KM-20L2
# [21] = tested on: KM12
# [22] = tested on: LOX IMVI
# [23] = tested on: M19-MEL
# [24] = tested on: MCF7
# [25] = tested on: MOLT-4
# [26] = tested on: NCI-H226
# [27] = tested on: NCI-H23
# [28] = tested on: NCI-H460
# [29] = tested on: NCI-H522
# [30] = tested on: NCI/ADR-RES
# [31] = tested on: OVCAR-3
# [32] = tested on: OVCAR-4
# [33] = tested on: OVCAR-5
# [34] = tested on: OVCAR-8
# [35] = tested on: RPMI-8226
# [36] = tested on: RXF 393
# [37] = tested on: SF-268
# [38] = tested on: SF-295
# [39] = tested on: SF-539
# [40] = tested on: SK-MEL-28
# [41] = tested on: SK-MEL-2
# [42] = tested on: SK-MEL-5
# [43] = tested on: SK-OV-3
# [44] = tested on: SN12C
# [45] = tested on: SNB-19
# [46] = tested on: SNB-75
# [47] = tested on: SNB-78
# [48] = tested on: SW-620
# [49] = tested on: U-251
# [50] = tested on: UACC-257
# [51] = tested on: UACC-62
# [52] = tested on: UO-31
# [53] = tested on: XF498
# [54] = tested on: Malme-3M
smiles,measurement,setting,value
C=CCNC(=O)C(C)C1CCC2(C)C=CC(=O)C(C)=C2C1O (stereo not given),GI50,[1],> 100 µM (inactive)
same,GI50,[2],> 100 µM (inactive)
same,GI50,[3],> 100 µM (inactive)
same,GI50,[4],> 100 µM (inactive)
same,GI50,[5],> 100 µM (inactive)
same,GI50,[6],> 100 µM (inactive)
same,GI50,[7],> 100 µM (inactive)
same,GI50,[8],> 100 µM (inactive)
same,GI50,[9],> 100 µM (inactive)
same,GI50,[10],> 100 µM (inactive)
same,GI50,[11],> 100 µM (inactive)
same,GI50,[12],> 100 µM
same,GI50,[13],> 100 µM (inactive)
same,GI50,[14],> 100 µM (inactive)
same,GI50,[15],> 100 µM (inactive)
same,GI50,[16],> 100 µM (inactive)
same,GI50,[17],> 100 µM (inactive)
same,GI50,[18],> 100 µM (inactive)
same,GI50,[19],> 100 µM (inactive)
same,GI50,[20],> 100 µM (inactive)
same,GI50,[21],> 100 µM (inactive)
same,GI50,[22],> 100 µM (inactive)
same,GI50,[23],> 100 µM (inactive)
same,GI50,[24],> 100 µM (inactive)
same,GI50,[25],> 100 µM (inactive)
same,GI50,[26],> 100 µM (inactive)
same,GI50,[27],> 100 µM (inactive)
same,GI50,[28],> 100 µM (inactive)
same,GI50,[29],> 100 µM (inactive)
same,GI50,[30],> 100 µM (inactive)
same,GI50,[31],> 100 µM (inactive)
same,GI50,[32],> 100 µM (inactive)
same,GI50,[33],> 100 µM (inactive)
same,GI50,[34],> 100 µM (inactive)
same,GI50,[35],> 100 µM (inactive)
same,GI50,[36],> 100 µM (inactive)
same,GI50,[37],> 100 µM (inactive)
same,GI50,[38],> 100 µM (inactive)
same,GI50,[39],> 100 µM (inactive)
same,GI50,[40],> 100 µM (inactive)
same,GI50,[41],> 100 µM (inactive)
same,GI50,[42],> 100 µM (inactive)
same,GI50,[43],> 100 µM (inactive)
same,GI50,[44],> 100 µM (inactive)
same,GI50,[45],> 100 µM (inactive)
same,GI50,[46],> 100 µM (inactive)
same,GI50,[47],> 25.8 µM (inactive)
same,GI50,[48],> 100 µM (inactive)
same,GI50,[49],> 100 µM (inactive)
same,GI50,[50],> 100 µM (inactive)
same,GI50,[51],> 100 µM (inactive)
same,GI50,[52],> 100 µM (inactive)
same,GI50,[53],> 100 µM (inactive)
O=C(O)CCC(NC(=O)c1ccc(Nc2cnc3cc(C(F)(F)F)ccc3n2)cc1)C(=O)O (stereo not given),GI50,[1],> 100 µM (inactive)
same,GI50,[2],> 100 µM (inactive)
same,GI50,[4],> 100 µM (inactive)
same,GI50,[5],> 100 µM (inactive)
same,GI50,[6],> 100 µM (inactive)
same,GI50,[7],> 100 µM (inactive)
same,GI50,[8],> 100 µM (inactive)
same,GI50,[9],> 100 µM (inactive)
same,GI50,[10],> 100 µM (inactive)
same,GI50,[11],> 100 µM (inactive)
same,GI50,[12],> 100 µM
same,GI50,[13],> 100 µM (inactive)
same,GI50,[14],> 100 µM (inactive)
same,GI50,[15],> 100 µM (inactive)
same,GI50,[16],> 100 µM (inactive)
same,GI50,[17],> 100 µM (inactive)
same,GI50,[18],> 100 µM (inactive)
same,GI50,[19],> 100 µM (inactive)
same,GI50,[20],> 100 µM (inactive)
same,GI50,[21],> 100 µM (inactive)
same,GI50,[22],> 100 µM (inactive)
same,GI50,[24],> 100 µM (inactive)
same,GI50,[25],> 100 µM (inactive)
same,GI50,[54],> 100 µM (inactive)
same,GI50,[26],> 100 µM (inactive)
same,GI50,[27],> 100 µM (inactive)
same,GI50,[28],> 100 µM (inactive)
same,GI50,[29],> 100 µM (inactive)
same,GI50,[30],> 100 µM (inactive)
same,GI50,[31],> 100 µM (inactive)
same,GI50,[32],> 100 µM (inactive)
same,GI50,[33],> 100 µM (inactive)
same,GI50,[34],> 100 µM (inactive)
same,GI50,[35],> 100 µM (inactive)
same,GI50,[36],> 100 µM (inactive)
same,GI50,[37],> 100 µM (inactive)
same,GI50,[38],> 100 µM (inactive)
same,GI50,[39],> 100 µM (inactive)
same,GI50,[40],> 100 µM (inactive)
same,GI50,[41],> 100 µM (inactive)
same,GI50,[42],> 100 µM (inactive)
same,GI50,[43],> 100 µM (inactive)
same,GI50,[44],> 100 µM (inactive)
same,GI50,[45],> 81.5 µM (inactive)
same,GI50,[46],> 35.6 µM (inactive)
same,GI50,[47],> 100 µM (inactive)
same,GI50,[48],> 100 µM (inactive)
same,GI50,[49],> 100 µM (inactive)
same,GI50,[50],> 100 µM (inactive)
same,GI50,[51],> 100 µM (inactive)
same,GI50,[52],> 100 µM (inactive)
same,GI50,[53],> 100 µM (inactive)
